Source: ChEMBL document CHEMBL5506025, “Discovery of LLC0424 as a Potent and Selective in Vivo NSD2 PROTAC Degrader” (J Med Chem, 2024)
The source made the active and inactive calls. No cut-off for these calls is given here.

How the values were obtained:
[1] = molecular target: T1, Protein cereblon/Histone-lysine N-methyltransferase NSD2 (Homo sapiens) (UniProt O96028+Q96SW2); experiment: PROTAC activity at CRBN/NSD2 in human RPMI 8402 cells assessed as induction of NSD2 degradation at 0.5 to 2 uM measured after 24 hrs by immunoblot analysis; format: cell-based; details: dose 0.5-2 µM
T1 sequence (Q96SW2 whole entry, looked up, one chain of several): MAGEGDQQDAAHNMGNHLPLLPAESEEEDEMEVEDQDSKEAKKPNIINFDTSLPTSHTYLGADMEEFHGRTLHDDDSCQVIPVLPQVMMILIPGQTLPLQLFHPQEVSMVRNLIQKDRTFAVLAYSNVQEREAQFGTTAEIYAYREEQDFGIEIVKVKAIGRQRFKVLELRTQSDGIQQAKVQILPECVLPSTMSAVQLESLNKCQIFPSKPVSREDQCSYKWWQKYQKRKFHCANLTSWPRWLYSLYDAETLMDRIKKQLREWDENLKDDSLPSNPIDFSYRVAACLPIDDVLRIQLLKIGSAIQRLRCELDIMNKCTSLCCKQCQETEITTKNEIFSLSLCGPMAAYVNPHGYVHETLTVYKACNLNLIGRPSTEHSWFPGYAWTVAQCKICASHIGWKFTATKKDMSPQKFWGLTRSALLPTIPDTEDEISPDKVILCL

[2] = molecular target: T1, Protein cereblon/Histone-lysine N-methyltransferase NSD2 (Homo sapiens); experiment: PROTAC activity at CRBN/NSD2 in human SEM cells assessed as induction of NSD2 degradation at 0.5 to 2 uM measured after 24 hrs by immunoblot analysis; format: cell-based; details: dose 0.5-2 µM
[3] = molecular target: T1, Protein cereblon/Histone-lysine N-methyltransferase NSD2 (Homo sapiens); experiment: PROTAC activity at CRBN/NSD2 in human RPMI 8402 cells assessed as induction of NSD2 degradation at 2 uM measured after 12 to 24 hrs by immunoblot analysis; format: cell-based; details: time 12-24 hrs
[4] = molecular target: T1, Protein cereblon/Histone-lysine N-methyltransferase NSD2 (Homo sapiens); experiment: PROTAC activity at CRBN/NSD2 in human SEM cells assessed as induction of NSD2 degradation at 2 uM measured after 12 to 24 hrs by immunoblot analysis; format: cell-based; details: time 12-24 hrs
[5] = molecular target: T2, Histone-lysine N-methyltransferase NSD2 (Homo sapiens, UniProt O96028); experiment: Induction of NSD2 degradation in HEK293FT cells measured after 48 hrs; format: cell-based
T2 sequence (O96028 whole entry): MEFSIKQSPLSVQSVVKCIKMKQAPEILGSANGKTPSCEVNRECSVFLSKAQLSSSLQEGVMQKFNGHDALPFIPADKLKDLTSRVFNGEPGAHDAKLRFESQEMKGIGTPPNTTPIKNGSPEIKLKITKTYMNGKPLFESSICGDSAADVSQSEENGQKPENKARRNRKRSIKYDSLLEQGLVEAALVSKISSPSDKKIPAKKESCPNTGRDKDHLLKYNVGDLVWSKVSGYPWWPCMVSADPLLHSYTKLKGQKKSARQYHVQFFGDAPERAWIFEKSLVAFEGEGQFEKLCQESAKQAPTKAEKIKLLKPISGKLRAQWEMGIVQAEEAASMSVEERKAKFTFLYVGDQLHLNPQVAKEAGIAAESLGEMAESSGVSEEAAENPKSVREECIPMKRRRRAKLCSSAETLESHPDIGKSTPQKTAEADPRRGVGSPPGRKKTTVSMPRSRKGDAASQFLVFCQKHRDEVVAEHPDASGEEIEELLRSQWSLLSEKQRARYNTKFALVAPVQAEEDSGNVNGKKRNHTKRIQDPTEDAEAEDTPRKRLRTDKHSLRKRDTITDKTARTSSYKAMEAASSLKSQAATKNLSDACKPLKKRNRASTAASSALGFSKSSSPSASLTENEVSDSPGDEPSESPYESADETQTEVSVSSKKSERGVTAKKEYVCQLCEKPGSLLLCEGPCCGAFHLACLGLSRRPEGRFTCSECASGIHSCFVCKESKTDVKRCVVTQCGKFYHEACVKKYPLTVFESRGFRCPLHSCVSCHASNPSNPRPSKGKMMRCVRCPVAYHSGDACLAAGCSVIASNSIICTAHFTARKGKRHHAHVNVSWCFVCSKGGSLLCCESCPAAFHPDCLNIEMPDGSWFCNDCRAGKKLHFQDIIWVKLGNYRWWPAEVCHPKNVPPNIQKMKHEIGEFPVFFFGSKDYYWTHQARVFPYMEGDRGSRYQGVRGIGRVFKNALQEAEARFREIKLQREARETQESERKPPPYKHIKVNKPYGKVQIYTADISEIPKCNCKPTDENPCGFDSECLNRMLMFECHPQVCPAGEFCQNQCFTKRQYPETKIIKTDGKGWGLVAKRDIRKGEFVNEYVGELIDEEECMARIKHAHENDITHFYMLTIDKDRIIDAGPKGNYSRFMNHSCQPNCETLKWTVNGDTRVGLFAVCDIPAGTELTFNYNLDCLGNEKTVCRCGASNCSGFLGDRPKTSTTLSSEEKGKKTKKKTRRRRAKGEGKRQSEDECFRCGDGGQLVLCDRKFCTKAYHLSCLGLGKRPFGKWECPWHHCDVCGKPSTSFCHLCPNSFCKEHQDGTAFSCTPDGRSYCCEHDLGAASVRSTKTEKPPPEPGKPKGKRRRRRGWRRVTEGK

[6] = system: RPMI 8402; experiment: Inhibition of colony formation in human RPMI 8402 cells at 2 uM administered every three days for 30 days by iodonitrotetrazolium chloride staining based microscopy analysis; format: functional, cell-based; details: time 30.0 day
[7] = molecular target: T1, Protein cereblon/Histone-lysine N-methyltransferase NSD2 (Homo sapiens); experiment: PROTAC activity at CRBN/NSD2 in human SEM cells assessed as induction of NSD2 degradation at 2 uM measured upto 24 hrs by immunoblot analysis; format: cell-based
[8] = molecular target: Protein cereblon/Eukaryotic peptide chain release factor GTP-binding subunit ERF3A (Homo sapiens) (UniProt Q96SW2+P15170); experiment: PROTAC activity at CRBN/GSPT1 in human SEM cells assessed as decrease in GSPT1 level at 2 uM measured upto 24 hrs by immunoblot analysis; format: cell-based
Chain of Protein cereblon/Eukaryotic peptide chain release factor GTP-binding subunit ERF3A (Homo sapiens) (P15170 whole entry, looked up): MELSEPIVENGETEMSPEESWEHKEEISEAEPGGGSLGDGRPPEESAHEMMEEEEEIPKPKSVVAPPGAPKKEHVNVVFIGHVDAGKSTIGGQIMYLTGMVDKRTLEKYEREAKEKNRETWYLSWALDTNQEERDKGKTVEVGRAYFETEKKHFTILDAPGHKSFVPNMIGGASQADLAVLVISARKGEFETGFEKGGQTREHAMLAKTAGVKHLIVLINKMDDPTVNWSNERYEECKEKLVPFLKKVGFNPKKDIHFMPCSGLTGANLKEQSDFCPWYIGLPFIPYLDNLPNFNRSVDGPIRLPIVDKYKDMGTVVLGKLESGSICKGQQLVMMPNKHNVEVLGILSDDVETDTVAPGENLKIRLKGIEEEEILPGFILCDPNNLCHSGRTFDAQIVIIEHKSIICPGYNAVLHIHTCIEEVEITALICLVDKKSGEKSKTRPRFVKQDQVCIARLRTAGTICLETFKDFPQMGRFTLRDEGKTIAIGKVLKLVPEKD
Chain of Protein cereblon/Eukaryotic peptide chain release factor GTP-binding subunit ERF3A (Homo sapiens) (Q96SW2 whole entry, looked up): as the sequence (Q96SW2 whole entry, looked up, one chain of several) above

Activity [1]	Activity [2]	Activity [3]	Activity [4]	DC50 [5]	Activity [7]	Activity [8]	SMILES	inhibition [6]
inactive	inactive	inactive	inactive	5.2 µM			O=C(CNc1cccc2c1C(=O)N(C1CCC(=O)NC1=O)C2=O)NCCCOc1ccc(NC(=O)c2ccc(CN(C(=O)c3ccc4c(c3)OCC(=O)N4)C3CC3)cc2)nc1 (stereo unspecified)	
inactive	inactive	inactive	inactive				CN1C(=O)CCC(N2C(=O)c3ccc(N4CCC(NC(=O)c5ccc(NC(=O)c6ccc(CN(C(=O)c7ccc8c(c7)OCC(=O)N8)C7CC7)cc6)cc5)CC4)cc3C2=O)C1=O (stereo unspecified)	inactive
inactive	inactive	inactive	inactive				NCCCCCCNC(=O)c1ccc(NC(=O)c2ccc(CN(C(=O)c3ccc4c(c3)OCC(=O)N4)C3CC3)cc2)cc1	
					inactive	Active	CC(C)N(Cc1ccc(C(=O)Nc2ccc(C(=O)NC3CCN(c4ccc5c(c4)C(=O)N(C4CCC(=O)NC4=O)C5=O)CC3)cc2)cc1)C(=O)c1ccc2c(c1)OCC(=O)N2 (stereo unspecified)	
